# Data published in ChEMBL document CHEMBL3804793, “Abietane-Type Diterpenoid Amides with Highly Potent and Selective Activity against Leishmania donovani and Trypanosoma cruzi” (J Nat Prod, 2016).
# Legend:
# Trypanosoma cruzi [1] = assay: Antitrypanosomal activity against metacyclic form of Trypanosoma cruzi SN3 infected in African green monkey Vero cells after 72 hrs by Giemsa staining; assay type: functional, organism-based
# [2] = Selectivity index, ratio of IC50 for African green monkey Vero cells to IC50 for metacyclic form of Trypanosoma cruzi SN3; assay type: toxicity, cell-based; conditions: read-out: Ratio IC50
# Leishmania donovani [3] = assay: Antileishmanial activity against axenic amastigotes of Leishmania donovani MHOM/SD/1962/1S-Cl2d infected in human THP1 cells assessed as parasite growth inhibition at 15 uM after 24 hrs by AlamarBlue viability assay; assay type: functional; conditions: read-out: GI
# Leishmania donovani [4] = assay: Antileishmanial activity against axenic amastigotes of Leishmania donovani MHOM/SD/1962/1S-Cl2d infected in human THP1 cells assessed as parasite growth inhibition at 50 uM after 24 hrs by AlamarBlue viability assay; assay type: functional; conditions: read-out: GI
# [5] = Cytotoxicity against human THP1 cells after 48 hrs by AlamarBlue viability assay; assay type: cell-based; conditions: THP-1, 48 h
# [6] = Selectivity index, ratio of IC50 for human THP1 cells to IC50 for axenic amastigotes of Leishmania donovani MHOM/SD/1962/1S-Cl2d infected in human THP1 cells; assay type: toxicity, cell-based, THP-1; conditions: read-out: Ratio IC50
# Leishmania donovani [7] = assay: Antileishmanial activity against axenic amastigotes of Leishmania donovani MHOM/SD/1962/1S-Cl2d […] assessed as parasite growth inhibition after 24 hrs by AlamarBlue viability assay; assay type: functional, organism-based
# [8] = Selectivity index, ratio of IC50 for rat L6 cells to IC50 for Trypanosoma cruzi Tulahuen C2C4 amastigotes; assay type: toxicity, cell-based; conditions: read-out: Ratio IC50
# L6 = assay: Cytotoxicity against rat L6 cells after 72 hrs by AlamarBlue dye based fluorimetric method; assay type: cell-based; conditions: L6, 72 h
# Trypanosoma cruzi [9] = assay: Antitrypanosomal activity against trypomastigote form of Trypanosoma cruzi Tulahuen C2C4 expressing LacZ gene infected in rat L6 cells after 96 hrs by photometric method; assay type: functional, organism-based; conditions: Tulahuen C2C4, L6, 96 h
# Leishmania donovani [10] = assay: Antileishmanial activity against axenic amastigotes of Leishmania donovani MHOM/SD/1962/1S-Cl2d infected in human macrophages at 5 uM; assay type: functional
# Leishmania donovani [11] = assay: Selectivity for axenic amastigotes of Leishmania donovani MHOM/SD/1962/1S-Cl2d infected in human macrophages over axenic amastigotes of Leishmania donovani MHOM/SD/1962/1S-Cl2d infected in human THP1 cells; assay type: functional, THP-1
# Trypanosoma cruzi [12] = assay: Potency index, ratio of IC50 for benznidazole to IC50 for test compound against trypomastigote form of Trypanosoma cruzi Tulahuen C2C4 expressing LacZ gene infected in rat L6 cells; assay type: functional
# Trypanosoma cruzi [13] = assay: Antitrypanosomal activity against intracellular form of Trypanosoma cruzi; assay type: functional, organism-based
# Leishmania donovani [14] = assay: Antileishmanial activity against amastigotes of Leishmania donovani MHOM/SD/1962/1S-Cl2d infected in human THP1 cells assessed as parasite growth inhibition at 1 uM after 24 hrs by AlamarBlue viability assay; conditions: THP-1, 24 h
SMILES,inhibition of growth at 15 µM (Leishmania donovani [3]),inhibition of growth at 50 µM (Leishmania donovani [4]),IC50 [5],selectivity ratio [6],IC50 (Leishmania donovani [7]),also measured
COC(=O)[C@]1(C)CCC[C@]2(C)C3=C(CC[C@@H]12)C(=O)C(C(C)C)=CC3=O,–,–,–,–,–,IC50 (Trypanosoma cruzi [1]): 17.3 µM; selectivity ratio [2]: 45
CC(C)c1ccc2c(c1)CC[C@H]1[C@](C)(CNC(=O)CCC(=O)O)CCC[C@]21C,55%,98.1%,–,–,–,–
C#CC(=O)NC[C@]1(C)CCC[C@]2(C)c3ccc(C(C)C)cc3CC[C@@H]12,98.1%,99.8%,< 3 µM,< 1,4.1 µM,–
CC(C)c1ccc2c(c1)CC[C@H]1[C@](C)(CNC(=O)/C=C/c3ccc([N+](=O)[O-])cc3)CCC[C@]21C,–,42.7%,–,–,–,–
CC(C)c1ccc2c(c1)CC[C@H]1[C@](C)(CNC(=O)/C=C/c3ccccc3)CCC[C@]21C,–,42.4%,–,–,–,–
CC(C)c1ccc2c(c1)CC[C@H]1[C@](C)(CNC(=O)c3ccccc3C(=O)O)CCC[C@]21C,34.9%,98.5%,–,–,–,–
CC(=O)NC[C@]1(C)CCC[C@]2(C)c3ccc(C(C)C)cc3CC[C@@H]12,96%,98.5%,33.3 µM,14,2.4 µM,selectivity ratio [8]: 6; IC50 (L6): 24.3 µM; IC50 (Trypanosoma cruzi [9]): 3.7 µM
CCCC(=O)NC[C@]1(C)CCC[C@]2(C)c3ccc(C(C)C)cc3CC[C@@H]12,73.2%,96.6%,56.3 µM,11,5.1 µM,–
C=CC(=O)NC[C@]1(C)CCC[C@]2(C)c3ccc(C(C)C)cc3CC[C@@H]12,99.6%,99.8%,23.2 µM,63,0.37 µM,inhibition at 5 µM (Leishmania donovani [10]): 94.7%; selectivity ratio [8]: 58; IC50 (L6): 36.7 µM; selectivity ratio (Leishmania donovani [11]): 6; IC50 (Trypanosoma cruzi [9]): 0.6 µM; Ratio IC50 (Trypanosoma cruzi [12]): 3.5
CC(C)c1ccc2c(c1)CC[C@H]1[C@](C)(CNC(=O)c3nccnc3C(=O)O)CCC[C@]21C,–,9.4%,–,–,–,–
CC(C)c1ccc2c(c1)CC[C@H]1[C@](C)(CNC(=O)c3ccc[nH]3)CCC[C@]21C,90.6%,99.1%,33.3 µM,10,3.2 µM,–
CC(C)c1ccc2c(c1)CC[C@H]1[C@](C)(CNC(=O)c3ccccc3)CCC[C@]21C,56.3%,95.7%,–,–,–,–
CC(C)c1ccc2c(c1)CC[C@H]1[C@](C)(CNC(=O)/C=C\C(=O)O)CCC[C@]21C,90.7%,98.8%,145 µM,76,1.9 µM,inhibition at 5 µM (Leishmania donovani [10]): 34.7%; selectivity ratio [8]: 4; IC50 (L6): 33.5 µM; IC50 (Trypanosoma cruzi [9]): 9.5 µM
CC(C)c1ccc2c(c1)CC[C@H]1[C@](C)(CN)CCC[C@]21C,–,68.7%,–,–,–,selectivity ratio [8]: 1; IC50 (L6): 6.5 µM; IC50 (Trypanosoma cruzi [9]): 7.4 µM
CC(C)c1cc2c(c(O)c1O)[C@@]1(C)CCCC(C)(C)C1=C(O)C2=O [14-DEOXYCOLEON U],–,–,–,–,–,IC50 (Trypanosoma cruzi [13]): 25.7 µM
C[C@@H]1[C@H](O)[C@@H](C)/C=C/C=C/C=C/C=C/C=C/C=C/C=C/[C@H](O[C@@H]2O[C@H](C)[C@@H](O)[C@H](N)[C@@H]2O)C[C@@H]2O[C@](O)(C[C@@H](O)C[C@@H](O)[C@H](O)CC[C@@H](O)C[C@@H](O)CC(=O)O[C@H]1C)C[C@H](O)[C@H]2C(=O)O [AMPHOTERICIN B],–,–,–,–,–,inhibition at 1 µM (Leishmania donovani [14]): > 90%
